Measured values reported in article PMC10702058, “Phase I dose escalation study and pilot efficacy analysis of LXI-15029, a novel mTOR dual inhibitor, in Chinese subjects with advanced malignant solid tumors” (BMC Cancer, 2023).
Entries after “also recorded” stand apart in the source; their conditions may differ.

Legend:
[1] = Plasma pharmacokinetics of LXI-15029 (LC-MS/MS, non-compartmental analysis); type: in vivo, human; details: for AUC / Cmax at 28 day / AUC(0-inf) / Cmax: human, plasma, geometric mean (coefficient of variation); for AUC / Cmax at 28 day / RacAUC (accumulation ratio) / RacCmax (accumulation ratio) / t1/2ss: multiple dose, cycle 1 day 28; for AUC(0-inf) / Cmax / CL/F / V/F: single dose, cycle 1 day 1; for RacAUC (accumulation ratio) / RacCmax (accumulation ratio) / t1/2ss / CL/F / V/F: arithmetic mean ± standard deviation
Description: Blood samples for PK analysis of LXI-15029 were collected on day 1 (pre-dose, 20 min, 40 min, 1 h, 1.5 h, 2 h, 3 h, 4 h, 6 h, 8 h, 12 h, 24 h, and 48 h), cycle 1 day 8 (pre-dose), cycle 1 day 15 (pre-dose), and cycle 1 day 28 (pre-dose, 20 min, 40 min, 1 h, 1.5 h, 2 h, 3 h, 4 h, 6 h, 8 h, and 12 h). The blood samples were stored at -70°C until testing. The concentration of LXI-15029 in plasma was measured using the validated liquid chromatography-tandem mass spectrometry (LC–MS/MS) method. The concentration–time information of LXI-15029 was summarized based on pre-dose and post-dose data of each patient, to explore the linearity of exposure with single dose and steady-state situations, the time to reach steady state and the predictability of single to multiple doses PK. PK parameters were calculated separately for single and repeated doses using descriptive statistics. PK analysis was performed by Covance Central Laboratory using the validated software Phoenix WinNonlin Version 8.1 (Pharsight, Mountain View, CA). A standard non-compartmental method was used to calculate the peak plasma concentration (Cmax), time to reach the Cmax (tmax), the total area under the concentration–time curve (AUC0-∞), and the elimination half-life (t1/2).

[2] = test system: human renal carcinoma, gastric cancer, breast cancer, and lung cancer xenografts; details: cited from earlier work

For `CNC(=O)c1cccc(-c2ccc3c(N4C5CCC4COC5)nc(N4CCOC[C@@H]4C)nc3n2)c1` [LXI-15029], the AUC ([1]; oral, 110 mg BID (n = 3)) was 12900 ng·h/mL, the Cmax at 28 day ([1]; oral, 110 mg BID (n = 3)) was 3930 ng/mL and the AUC ([1]; oral, 150 mg BID (n = 4)) was 25500 ng·h/mL. It also gave a Cmax at 28 day ([1]; oral, 150 mg BID (n = 4)) of 5840 ng/mL, an AUC(0-inf) ([1]; oral, 10 mg BID (n = 3)) of 111 ng·h/mL and a Cmax ([1]; oral, 10 mg BID (n = 3)) of 66.5 ng/mL. For the same compound, the AUC(0-inf) ([1]; oral, 20 mg BID (n = 3)) was 898 ng·h/mL, the Cmax ([1]; oral, 20 mg BID (n = 3)) was 474 ng/mL and the AUC(0-inf) ([1]; oral, 40 mg BID (n = 3)) was 1680 ng·h/mL. It also gave a Cmax ([1]; oral, 40 mg BID (n = 3)) of 1010 ng/mL, an AUC(0-inf) ([1]; oral, 60 mg BID (n = 4)) of 3750 ng·h/mL and a Cmax ([1]; oral, 60 mg BID (n = 4)) of 1340 ng/mL. For the same compound, the AUC(0-inf) ([1]; oral, 80 mg BID (n = 4)) was 1870 ng·h/mL, the Cmax ([1]; oral, 80 mg BID (n = 4)) was 1340 ng/mL and the AUC(0-inf) ([1]; oral, 110 mg BID (n = 3)) was 5340 ng·h/mL. It also gave a Cmax ([1]; oral, 110 mg BID (n = 3)) of 2930 ng/mL, an AUC(0-inf) ([1]; oral, 150 mg BID (n = 4)) of 12100 ng·h/mL and a Cmax ([1]; oral, 150 mg BID (n = 4)) of 4140 ng/mL. For the same compound, the “RacAUC (accumulation ratio)” value ([1]; 10 mg BID (n = 3)) was 2.08 ± 1.289, the “RacCmax (accumulation ratio)” value ([1]; 10 mg BID (n = 3)) was 1.96 ± 1.061 and the t1/2ss ([1]; 10 mg BID (n = 3)) was 1.13 ± 0.080 h. The “RacAUC (accumulation ratio)” value ([1]; 20 mg BID (n = 3)) was 0.99 ± 0.260, the “RacCmax (accumulation ratio)” value ([1]; 20 mg BID (n = 3)) was 0.75 ± 0.140 and the t1/2ss ([1]; 20 mg BID (n = 3)) was 1.24 ± 0.167 h. The “RacAUC (accumulation ratio)” value ([1]; 40 mg BID (n = 3)) was 1.00 ± 0.036, the “RacCmax (accumulation ratio)” value ([1]; 40 mg BID (n = 3)) was 1.02 ± 0.180 and the t1/2ss ([1]; 40 mg BID (n = 3)) was 1.14 ± 0.250 h. The “RacAUC (accumulation ratio)” value ([1]; 60 mg BID (n = 4)) was 1.47 ± 0.546, the “RacCmax (accumulation ratio)” value ([1]; 60 mg BID (n = 4)) was 1.37 ± 0.382 and the t1/2ss ([1]; 60 mg BID (n = 4)) was 1.90 ± 0.197 h. For the same compound, the “RacAUC (accumulation ratio)” value ([1]; 80 mg BID (n = 4)) was 1.78 ± 0.268, the “RacCmax (accumulation ratio)” value ([1]; 80 mg BID (n = 4)) was 1.28 ± 0.102 and the t1/2ss ([1]; 80 mg BID (n = 4)) was 1.33 ± 0.068 h. For the same compound, the “RacAUC (accumulation ratio)” value ([1]; 110 mg BID (n = 3)) was 2.51 ± 0.778, the “RacCmax (accumulation ratio)” value ([1]; 110 mg BID (n = 3)) was 1.37 ± 0.352 and the t1/2ss ([1]; 110 mg BID (n = 3)) was 2.33 ± 0.857 h. The “RacAUC (accumulation ratio)” value ([1]; 150 mg BID (n = 4)) was 2.39 ± 0.768, the “RacCmax (accumulation ratio)” value ([1]; 150 mg BID (n = 4)) was 1.36 ± 0.507 and the t1/2ss ([1]; 150 mg BID (n = 4)) was 3.26 ± 1.247 h. For the same compound, the “absorption after oral administration” value ([1]; oral) was “absorbed rapidly; also recorded: fast absorbed”, the CL/F ([1]; 10 mg BID (n = 3)) was 99.45 ± 51.035 L/h and the V/F ([1]; 10 mg BID (n = 3)) was 126.07 ± 40.383 L. It also gave a CL/F ([1]; 20 mg BID (n = 3)) of 24.11 ± 11.940 L/h, a V/F ([1]; 20 mg BID (n = 3)) of 49.56 ± 19.453 L and a CL/F ([1]; 40 mg BID (n = 3)) of 24.58 ± 7.772 L/h. The V/F ([1]; 40 mg BID (n = 3)) was 42.35 ± 25.602 L, the CL/F ([1]; 60 mg BID (n = 4)) was 16.47 ± 4.677 L/h and the V/F ([1]; 60 mg BID (n = 4)) was 45.88 ± 14.063 L. The CL/F ([1]; 80 mg BID (n = 4)) was 48.30 ± 25.396 L/h, the V/F ([1]; 80 mg BID (n = 4)) was 92.88 ± 47.995 L and the CL/F ([1]; 110 mg BID (n = 3)) was 24.35 ± 17.791 L/h. The V/F ([1]; 110 mg BID (n = 3)) was 43.99 ± 17.319 L, the CL/F ([1]; 150 mg BID (n = 4)) was 12.57 ± 2.022 L/h and the V/F ([1]; 150 mg BID (n = 4)) was 34.75 ± 12.576 L. The “dose dependence of antitumor activity” value ([2]; dose range of 5–40 mg/kg, in vivo preclinical data) was “dose-dependent” and the “antitumor activity in xenograft models” value ([2]; tumors with abnormal regulation in the mTOR signaling pathway, ref [25], [26]) was “selective antitumor effect; also recorded: selective antitumor activity”.
